According to patent US9029325B2, “Amylin analogues and pharmaceutical compositions thereof” (Novo Nordisk A/S, priority 2011, dated 2015):
Starred links: 1 amine or outer side, 2 acyl side, 3 side chain; linkers in the order of their positions; H or OH if unused. Positions of bridges follow the written chain, without caps; N, C: chain ends. Residues, ends and D or L forms follow the SMILES beside them. *: point of attachment. C20 diacid = O=C(O)CCCCCCCCCCCCCCCCCCC(=O)*; γGlu = O=C(O)[C@H](CCC(=O)[*:2])N[*:1]

Assay: Assay (III) ThT fibrillation assay for physical stability
Type: physicochemical
Conditions: for Th T pH 4.0 lag time (h): 37° C., orbital shaking 960 rpm
Text: Low physical stability of a polypeptide may lead to amyloid fibril formation, which is observed as well-ordered, thread-like macromolecular structures in the sample eventually resulting in gel formation. This has traditionally been measured by visual inspection of the sample. However, that kind of measurement is very subjective and depending on the observer. Therefore, the application of a small molecule indicator probe is much more advantageous. Thioflavin T (ThT) is such a probe and has a distinct fluorescence signature when binding to fibrils [Naiki et al. (1989) Anal. Biochem. 177, 244-249; LeVine (1999) Methods. Enzymol. […], 274-284].
The time course for fibril formation can be described by a sigmoidal curve with the following expression [Nielsen et al. (2001) Biochemistry 40, 6036-6046]:
[formula] Here, F is the ThT fluorescence at the time t. The constant t0 is the time needed to reach 50% of maximum fluorescence. The two important parameters describing fibril formation are the lag-time calculated by t0−2T and the apparent rate constant kapp=1/τ.
Few of those intermediates nucleate to form a template onto which further intermediates may assembly and the fibrillation proceeds. The lag-time corresponds to the interval in which the critical mass of nucleus is built up and the apparent rate constant is the rate with which the fibril itself is formed.
Samples were prepared freshly before each assay. Each sample composition is described in each example. The pH of the sample was adjusted to the desired value using appropriate amounts of concentrated NaOH and HClO4 or HCl. Thioflavin T was added to the samples from a stock solution in H2O to a final concentration of 1 μM.
Sample aliquots of 200 μl were placed in a 96 well microtiter plate (Packard OptiPlate™-96, white polystyrene). Usually, four or eight replica of each sample (corresponding to one test condition) were placed in one column of wells. The plate was sealed with Scotch Pad (Qiagen).
Incubation at given temperature, shaking and measurement of the ThT fluorescence emission were done in a Fluoroskan Ascent FL fluorescence platereader or Varioskan platereader (Thermo Labsystems). The temperature was adjusted to 37° C. The orbital shaking was adjusted to 960 rpm with an amplitude of 1 mm in all the presented data. Fluorescence measurement was done using excitation through a 444 nm filter and measurement of emission through a 485 nm filter.
Each run was initiated by incubating the plate at the assay temperature for 10 min. The plate was measured every 20 minutes for a desired period of time. Between each measurement, the plate was shaken and heated as described.
The measurement points were saved in Microsoft Excel format for further processing and curve drawing and fitting was performed using GraphPad Prism. The background emission from ThT in the absence of fibrils was negligible. The data points are typically a mean of four or eight samples and shown with standard deviation error bars. Only data obtained in the same experiment (i.e. samples on the same plate) are presented in the same graph ensuring a relative measure of fibrillation […].
The data set may be fitted to Eq. (1). However, since full sigmodial curves in this case are not always achieved during the measurement time, the degree of fibrillation is expressed as ThT fluorescence tabulated as the mean of the samples and shown with the standard deviation at various time points.
The polypeptide concentration in each of the tested formulations were measured both before application in the ThT fibrillation assay (“Initial”) and after completion of the ThT fibrillation (“After ThT assay”). Concentrations were determined by reverse HPLC methods using a pramlintide standard as a reference. Before measurement after completion 150 μl was collected from each of the replica and transferred to an Eppendorf tube. These were centrifuged at 30000 G for 40 mins. […]

SMILES | Th T pH 4.0 lag time (h) | ThT pH 4.0 lag time (Table 9) [hr]
CC[C@H](C)[C@H](NC(=O)[C@@H]1CCCN1C(=O)CNC(=O)[C@H](Cc1ccccc1)NC(=O)[C@H](CC(N)=O)NC(=O)[C@H](CC(N)=O)NC(=O)[C@H](CO)NC(=O)[C@H](CO)NC(=O)[C@H](Cc1c[nH]cn1)NC(=O)[C@H](CCCNC(=N)N)NC(=O)[C@H](CC(C)C)NC(=O)[C@H](Cc1ccccc1)NC(=O)[C@H](CCC(=O)O)NC(=O)[C@H](C)NC(=O)[C@H](CC(C)C)NC(=O)[C@H](CCCNC(=N)N)NC(=O)[C@H](CCC(N)=O)NC(=O)[C@@H](NC(=O)[C@H](C)NC(=O)[C@@H]1CSSC[C@H](NC(=O)[C@H](Cc2c[nH]cn2)NC(=O)CC[C@H](NC(=O)CCCCCCCCCCCCCCCCCCC(=O)O)C(=O)O)C(=O)N[C@@H](CC(N)=O)C(=O)N[C@@H]([C@@H](C)O)C(=O)N[C@@H](C)C(=O)N[C@@H]([C@@H](C)O)C(=O)N1)[C@@H](C)O)C(=O)N[C@@H](CC(C)C)C(=O)N1CCC[C@H]1C(=O)N1CCC[C@H]1C(=O)N[C@H](C(=O)N[C@@H](CC(N)=O)C(=O)N[C@H](C(=O)NCC(=O)N[C@@H](CO)C(=O)N[C@@H](CC(N)=O)C(=O)N[C@H](C(=O)N1CCC[C@H]1C(N)=O)[C@@H](C)O)C(C)C)[C@@H](C)O [Example 90, N-alpha-[(S)-4-Carboxy-4-(19-carboxynonadecanoylamino)butyryl]-[His1, Glu14, Arg17, Pro37]-pramlintide] ({C20 diacid-γGlu}-HCNTATCATQRLAEFLRHSSNNFGPILPPTNVGSNTP-NH2; disulfide 2-7 (inferred); C-terminus assumed) | >45 | >45
CC[C@H](C)[C@H](NC(=O)[C@@H]1CCCN1C(=O)CNC(=O)[C@H](Cc1ccccc1)NC(=O)[C@H](CC(N)=O)NC(=O)[C@H](CC(N)=O)NC(=O)[C@H](CO)NC(=O)[C@H](CO)NC(=O)[C@H](Cc1c[nH]cn1)NC(=O)[C@H](Cc1c[nH]cn1)NC(=O)[C@H](CC(C)C)NC(=O)[C@H](Cc1ccccc1)NC(=O)[C@H](CCC(=O)O)NC(=O)[C@H](C)NC(=O)[C@H](CC(C)C)NC(=O)[C@H](CCCNC(=N)N)NC(=O)[C@H](CCC(N)=O)NC(=O)[C@@H](NC(=O)[C@H](C)NC(=O)[C@@H]1CSSC[C@H](NC(=O)CNC(=O)CC[C@H](NC(=O)CCCCCCCCCCCCCCCCCCC(=O)O)C(=O)O)C(=O)N[C@@H](CC(N)=O)C(=O)N[C@@H]([C@@H](C)O)C(=O)N[C@@H](C)C(=O)N[C@@H]([C@@H](C)O)C(=O)N1)[C@@H](C)O)C(=O)N[C@@H](CC(C)C)C(=O)N1CCC[C@H]1C(=O)N1CCC[C@H]1C(=O)N[C@H](C(=O)N[C@@H](CC(N)=O)C(=O)N[C@H](C(=O)NCC(=O)N[C@@H](CO)C(=O)N[C@@H](CC(N)=O)C(=O)N[C@H](C(=O)N1CCC[C@H]1C(N)=O)[C@@H](C)O)C(C)C)[C@@H](C)O [Example 91, N-alpha-[(S)-4-Carboxy-4-(19-carboxynonadecanoylamino)butyryl]-[Gly1, Glu14, His17, Pro37]-pramlintide] ({C20 diacid-γGlu}-GCNTATCATQRLAEFLHHSSNNFGPILPPTNVGSNTP-NH2; disulfide 2-7) | 29 | 
